In ChEMBL document CHEMBL5335827, “Divergent Biosynthesis of Bridged Polycyclic Sesquiterpenoids by a Minimal Fungal Biosynthetic Gene Cluster” (J Nat Prod, 2024):
Activity calls are given as the source filed them. No cut-off for these calls is given here.

What was measured:
Type in all cases: functional, cell-based
[1] = tested on: HepG2; experiment: Cytotoxicity against human HepG2 cells at 20 uM by CCK8 assay
[2] = tested on: LoVo; experiment: Cytotoxicity against human LoVo cells at 20 uM by CCK8 assay
[3] = tested on: RAW264.7; experiment: Anti-inflammatory activity against mouse RAW264.7 cells assessed as inhibition of LPS-induced NO release by Griess assay

IC50 [3] [µM] | SMILES | Activity [1] | Activity [2]
– | C=C1[C@@H]2C(O)C(O)[C@H]3[C@@H]2[C@@H](C(C)C)CC[C@@]13CO (stereo partly specified) | inactive | inactive
– | C=C1[C@@H]2OC[C@H]3[C@@H]([C@H]2O)[C@@H](C(C)C)CC[C@@]13C | inactive | inactive
– | C=C1C2C3[C@@H](C[C@@H]2O)[C@]1(C)CC[C@H](O)C3(C)C | inactive | inactive
– | C=C1C2C3[C@@H](C[C@@H]2O)[C@]1(C)CCC[C@@]3(C)CO | inactive | inactive
– | C=C1[C@H]([C@@H]2C[C@H](O)C(=O)O2)[C@H]2[C@@H](C(C)C)CC[C@]1(C)[C@H]2CO | inactive | inactive
– | CC(C)[C@H]1CC[C@]2(C)[C@H]3CO[C@]2(CO)C=C[C@@H]13 | inactive | inactive
– | C=C1C2C3[C@@H](C[C@@H]2O)[C@]1(C)C(=O)CCC3(C)C | inactive | inactive
– | C=C1C2C3[C@@H](C[C@@H]2O)[C@]1(C)[C@H](O)CCC3(C)C | inactive | inactive
– | C=C1C2C(=O)C[C@@H]3C2C(C)(C)CCC[C@]13CO | inactive | inactive
– | CC1(C)CCC[C@]2(C)C(CO)=CC1[C@H]2CCO | inactive | inactive
– | C=C1[C@H](CO)C2[C@@H]([C@H](C)CO)CC[C@]1(C)[C@H]2CO | inactive | inactive
– | C=C1C2C(=O)C[C@@H]3C2C(C)(C)CC[C@H](O)[C@]13C | inactive | inactive
3.9 | CC(=O)/C=C/[C@H]1[C@H]2C(C=O)=C(C)[C@]1(C)CC[C@@H]2C(C)C | inactive | inactive
– | C=C1CC2[C@@H](C(C)C)CC[C@]1(C)[C@H]2C(O)CO (stereo partly specified) | inactive | inactive
– | CC(C)[C@H]1CC[C@]2(CO)C(C)[C@@H]3C(O)C(O)[C@H]2C13 (mixture of isomers) | inactive | inactive
